Earlier results as cited in patent publication US20080312310A1, “Compounds, Compositions and Methods” (Cytokinetics, Inc., priority 2002, published 2008).

Test system: A549 cells
Details: data provided by National Cancer Institute, Developmental Therapeutic Program

Row | Structure (SMILES) | GI50 [nM]
1 | O=c1[nH]cc(F)c(=O)[nH]1 [5-fluorouracil] | 1000
2 | COc1cccc2c1C(=O)c1c(O)c3c(c(O)c1C2=O)C[C@@](O)(C(=O)CO)C[C@@H]3O[C@H]1C[C@H](N)[C@H](O)[C@H](C)O1 [doxorubicin] | 63
3 | NC(=O)NO [hydroxyurea] | 500000
4 | CC(=O)O[C@H]1C(=O)[C@@]2(C)[C@H]([C@H](OC(=O)c3ccccc3)[C@]3(O)C[C@H](OC(=O)[C@H](O)[C@@H](NC(=O)c4ccccc4)c4ccccc4)C(C)=C1C3(C)C)[C@]1(OC(C)=O)CO[C@@H]1C[C@@H]2O [paclitaxel] | 4
